Source: ChEMBL document CHEMBL5120918, “Marinoquinolones and Marinobactoic Acid: Antimicrobial and Cytotoxic ortho-Dialkylbenzene-Class Metabolites Produced by a Marine Obligate Gammaproteobacterium of the Genus Marinobacterium” (J Nat Prod, 2022)
In brackets after ≈: the same amount, converted by molar mass.

Tests used:
Candida albicans = assay: Antimicrobial activity against Candida albicans NBRC0197 assessed as inhibition of […] growth incubated for 48 hrs by liquid microculture method; assay type: functional
Kocuria rhizophila = assay: Antimicrobial activity against Kocuria rhizophila ATCC9341 assessed as inhibition of bacterial growth incubated for 48 hrs by liquid microculture method; assay type: functional
Trichophyton rubrum = assay: Antimicrobial activity against Trichophyton rubrum NBRC5467 assessed as inhibition of […] growth incubated for 48 hrs by liquid microculture method; assay type: functional
[1] = tested on: Agrobacterium tumefaciens; assay: Antimicrobial activity against Rhizobium radiobacter NBRC14554 assessed as inhibition of bacterial growth incubated for 48 hrs by liquid microculture method; assay type: functional
Staphylococcus aureus = assay: Antimicrobial activity against Staphylococcus aureus FDA209P JC-1 assessed as inhibition of bacterial growth incubated for 48 hrs by liquid microculture method; assay type: functional
P388 = assay: Cytotoxicity against mouse P388 cells assessed as cell growth inhibition measured after 48 hrs by MTT assay; assay type: functional, cell-based; conditions: P388, 48 h
Escherichia coli = assay: Antimicrobial activity against Escherichia coli NIHJ JC-2 assessed as inhibition of bacterial growth incubated for 48 hrs by liquid microculture method; assay type: functional
[2] = tested on: Colletotrichum gloeosporioides; assay: Antimicrobial activity against Glomerella cingulata NBRC5907 assessed as inhibition of […] growth incubated for 48 hrs by liquid microculture method; assay type: functional

SMILES	MIC (Candida albicans) [µg/mL]	MIC (Kocuria rhizophila) [µg/mL]	MIC (Trichophyton rubrum) [µg/mL]	MIC [1] [µg/mL]	MIC (Staphylococcus aureus) [µg/mL]	MIC (Escherichia coli) [µg/mL]	MIC [2] [µg/mL]	IC50 (P388) [µM]
C/C=C/c1ccccc1/C=C/C=C/C(O)Cc1cc(=O)c2ccccc2[nH]1 (racemic)	> 100	6.3 (≈ 17.6 µM)	6.3 (≈ 17.6 µM)	50 (≈ 140 µM)	13 (≈ 36.4 µM)	> 100	13 (≈ 36.4 µM)	7.3
C[C@@H]1[C@H](O)[C@@H](C)/C=C/C=C/C=C/C=C/C=C/C=C/C=C/[C@H](O[C@@H]2O[C@H](C)[C@@H](O)[C@H](N)[C@@H]2O)C[C@@H]2O[C@](O)(C[C@@H](O)C[C@@H](O)[C@H](O)CC[C@@H](O)C[C@@H](O)CC(=O)O[C@H]1C)C[C@H](O)[C@H]2C(=O)O [AMPHOTERICIN B]	0.78 (≈ 0.844 µM)	–	0.78 (≈ 0.844 µM)	–	–	–	1.3 (≈ 1.41 µM)	–
COc1cccc2c1C(=O)c1c(O)c3c(c(O)c1C2=O)C[C@@](O)(C(=O)CO)C[C@@H]3O[C@H]1C[C@H](N)[C@H](O)[C@H](C)O1 [DOXORUBICIN]	–	–	–	–	–	–	–	0.08

Now from value to molecule, other results behind:

MIC (Candida albicans) [µg/mL]	MIC (Kocuria rhizophila) [µg/mL]	MIC (Trichophyton rubrum) [µg/mL]	MIC [1] [µg/mL]	MIC (Staphylococcus aureus) [µg/mL]	MIC (Escherichia coli) [µg/mL]	MIC [2] [µg/mL]	SMILES	IC50 (P388) [µM]
> 100	13 (≈ 38.1 µM)	13 (≈ 38.1 µM)	50 (≈ 146 µM)	25 (≈ 73.2 µM)	> 100	25 (≈ 73.2 µM)	C/C=C/c1ccccc1C/C=C/C=C\Cc1cc(=O)c2ccccc2[nH]1	10
> 100	13 (≈ 53.6 µM)	13 (≈ 53.6 µM)	25 (≈ 103 µM)	6.3 (≈ 26 µM)	> 100	6.3 (≈ 26 µM)	C/C=C/c1ccccc1C/C=C/C=C\CC(=O)O	1.2
